Legend:
FHC = experiment: Growth inhibition IC50 against normal fetal colon cell line; assay type: cell-based, human; details: conclusion from Table 4
Text: Cell lines and cell culture. The Caco2, HCT116, HT29, SW480, and SW837 human colorectal cancer cell lines and the FHC normal human fetal colon cell line were obtained from American Type Culture Collection (Manassas, Va.). All cell lines were maintained in DF10 medium containing DMEM (Invitrogen, San Diego, Calif.) supplemented with 10% fetal bovine serum (Invitrogen). The FHC cell line was originally established from the colon of a human fetus at 13 weeks of gestation and has an epithelial morphology. Cells were cultured in an incubator with humidified air at 37° C. with 5% CO2. As an untreated solvent control, cells were treated with DMSO (Sigma Chemical Co., St. Louis, Mo.) at a final concentration of <0.1%. […] Cells to be tested against were plated onto 96-well plates (3×10^3 cells/well) and twenty-four hours later, the cells were treated with an illustrative Synergistic Polyphenol Composition, or one or more illustrative Synergistic Polyphenol Compounds. Neither the medium nor the test compounds were changed during this time period. The assay was done in triplicate. […] The medium and test compounds were not changed during this time period. As a control, the cells were treated with 0.1% DMSO. […] The numbers of cells in replica plates were then determined using a Coulter Counter (Beckman Coulter Co., Fullerton, Calif.) as described in Shimizu et al., Clin. Cancer Res. 2004: 10:1130-40.

HT29 cells [1] = experiment: Incorporation of DilC16 into the plasma membrane after pretreatment; assay type: cell-based, human; details: HT29 pretreated with test substance
HT29 cells [2] = experiment: Filipin staining of plasma membrane cholesterol; assay type: cell-based, human
Experimental: These effects were detected with as little as […] of EGCG, and within 5 minutes. Phosphorylation of EGFR, ERK1, ERK2, and AKT were suppressed in cells treated with methyl-β-cyclodextrin, which depletes plasma membrane cholesterol. […] In addition, the inhibitory effect of EGCG on phosphorylation of EGFR was not blocked by the addition of cholesterol on the growth medium. These findings provide evidence that EGCG can alter membrane domain organization in colon cancer cells ant that this is not due to cholesterol depletion. It was noted that pre-treatment of the cells with EGCG or Poly E inhibited the binding of Alexa 488-labeled EGF to the cell surface receptor EGFR.

[3] = obtained in a clinical study; value said to be in the range of the peak; cited from earlier work

Substance: (−)-epigallocatechin gallate
- growth inhibition of colorectal cancer cells relative to FHC normal cells (FHC): preferentially inhibit
- subsequent incorporation of DilC16 into the plasma membrane (HT29 cells [1]): inhibit
- effects on plasma membrane properties versus cholesterol depletion (filipin staining) (HT29 cells [2]): not associated with cholesterol depletion
- peak plasma concentration [3]: ~1.0 µg/mL

Source: patent publication US20070054868A1, “Synergistic polyphenol compounds, compositions thereof, and uses thereof” (The Trustees of Columbia University in the City of New York, priority 2005, published 2007)
